Results published in ChEMBL document CHEMBL1201862, “PubChem BioAssay data set” (2004).
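Results reflect a 48-hour exposure of cells in 96-well plates to compound at five concentrations. Here, GI50 denotes the concentration required for 50% inhibition of growth.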 The source made the active and inactive calls. Cut-off read from the data, not from the text of the source: active = GI50 up to about 1.1 µM and inactive = higher.

Columns and labels:
Test in all cases: NCI-60 cell line screen, 48 h
ACHN = tested on: ACHN
HOP-92 = tested on: HOP-92
SN12C = tested on: SN12C
SF-295 = tested on: SF-295
HCC 2998 = tested on: HCC 2998
CAKI-1 = tested on: CAKI-1
HOP-62 = tested on: HOP-62
OVCAR-3 = tested on: OVCAR-3
K562 = tested on: K562
U-251 = tested on: U-251
TK-10 = tested on: TK-10
NCI-H460 = tested on: NCI-H460
SW-620 = tested on: SW-620
RXF 393 = tested on: RXF 393
MDA-MB-231 = tested on: MDA-MB-231
Hs-578T = tested on: Hs-578T
A549 = tested on: A549
KM12 = tested on: KM12
NCI-H23 = tested on: NCI-H23
IGROV-1 = tested on: IGROV-1
MCF7 = tested on: MCF7
MOLT-4 = tested on: MOLT-4
HL-60 = tested on: HL-60
OVCAR-5 = tested on: OVCAR-5
NCI/ADR-RES = tested on: NCI/ADR-RES
HCT-15 = tested on: HCT-15
NCI-H522 = tested on: NCI-H522
HCT-116 = tested on: HCT-116
SK-MEL-28 = tested on: SK-MEL-28
SNB-19 = tested on: SNB-19
NCI-H226 = tested on: NCI-H226
MDA-N = tested on: MDA-N
PC-3 = tested on: PC-3
CCRF-CEM = tested on: CCRF-CEM
SK-MEL-2 = tested on: SK-MEL-2
SK-MEL-5 = tested on: SK-MEL-5
A498 = tested on: A498
DU-145 = tested on: DU-145
BT-549 = tested on: BT-549
SF-539 = tested on: SF-539
HT-29 = tested on: HT-29
OVCAR-4 = tested on: OVCAR-4
M14 = tested on: M14
LOX IMVI = tested on: LOX IMVI
RPMI-8226 = tested on: RPMI-8226
SF-268 = tested on: SF-268
UACC-257 = tested on: UACC-257
MDA-MB-435 = tested on: MDA-MB-435
SK-OV-3 = tested on: SK-OV-3
COLO 205 = tested on: COLO 205
SNB-75 = tested on: SNB-75
Malme-3M = tested on: Malme-3M
UO-31 = tested on: UO-31
EKVX = tested on: EKVX
T47D = tested on: T47D
786-0 = tested on: 786-0
OVCAR-8 = tested on: OVCAR-8
UACC-62 = tested on: UACC-62

COC(=O)c1ccc(/N=N/N(C)COc2ccc(C#N)cc2)cc1
GI50 (ACHN): 21.2 µM (inactive) | GI50 (HOP-92): 34.4 µM (inactive) | GI50 (SN12C): > 100 µM (inactive) | GI50 (SF-295): 44.8 µM (inactive) | GI50 (HCC 2998): 62.1 µM (inactive) | GI50 (CAKI-1): 69 µM (inactive) | GI50 (HOP-62): > 100 µM (inactive) | GI50 (OVCAR-3): > 100 µM (inactive) | GI50 (K562): 35.2 µM (inactive) | GI50 (U-251): 98.6 µM (inactive) | GI50 (TK-10): > 100 µM (inactive) | GI50 (NCI-H460): 18.2 µM (inactive) | GI50 (SW-620): 53.5 µM (inactive) | GI50 (RXF 393): 95.5 µM (inactive) | GI50 (MDA-MB-231): > 100 µM (inactive) | GI50 (Hs-578T): 59.4 µM (inactive) | GI50 (A549): 70 µM (inactive) | GI50 (KM12): 70.8 µM (inactive) | GI50 (NCI-H23): > 100 µM (inactive) | GI50 (IGROV-1): > 100 µM (inactive) | GI50 (MCF7): > 100 µM (inactive) | GI50 (MOLT-4): 82.2 µM (inactive) | GI50 (HL-60): 16.6 µM (inactive) | GI50 (OVCAR-5): 61 µM (inactive) | GI50 (NCI/ADR-RES): 67 µM (inactive) | GI50 (HCT-15): 22.4 µM | GI50 (NCI-H522): > 100 µM (inactive) | GI50 (HCT-116): 79.4 µM (inactive) | GI50 (SK-MEL-28): > 100 µM (inactive) | GI50 (SNB-19): > 100 µM (inactive) | GI50 (NCI-H226): > 100 µM (inactive) | GI50 (MDA-N): > 100 µM (inactive) | GI50 (PC-3): > 100 µM (inactive) | GI50 (CCRF-CEM): 20.3 µM (inactive) | GI50 (SK-MEL-2): > 100 µM (inactive) | GI50 (SK-MEL-5): 45.1 µM (inactive) | GI50 (A498): > 100 µM (inactive) | GI50 (DU-145): 40.4 µM (inactive) | GI50 (BT-549): > 100 µM (inactive) | GI50 (SF-539): > 100 µM (inactive) | GI50 (HT-29): > 100 µM (inactive) | GI50 (OVCAR-4): > 100 µM (inactive) | GI50 (M14): > 100 µM (inactive) | GI50 (LOX IMVI): 56.1 µM (inactive) | GI50 (RPMI-8226): > 100 µM (inactive) | GI50 (SF-268): > 100 µM (inactive) | GI50 (UACC-257): > 100 µM (inactive) | GI50 (MDA-MB-435): 40.4 µM (inactive) | GI50 (SK-OV-3): > 100 µM (inactive) | GI50 (COLO 205): 61.2 µM (inactive) | GI50 (SNB-75): 49.2 µM (inactive) | GI50 (Malme-3M): > 100 µM (inactive) | GI50 (UO-31): 77.3 µM (inactive) | GI50 (EKVX): > 100 µM (inactive) | GI50 (T47D): 74 µM (inactive) | GI50 (786-0): > 100 µM (inactive) | GI50 (OVCAR-8): > 100 µM (inactive)

O=C1C=C(N2CCN(CCOCCO)CC2)C(=O)c2c(O)ccc(O)c21
GI50 (ACHN): 7.4 µM (inactive) | GI50 (HOP-92): 7.89 µM (inactive) | GI50 (SN12C): 4.22 µM (inactive) | GI50 (SF-295): 14 µM (inactive) | GI50 (HCC 2998): 2.7 µM (inactive) | GI50 (CAKI-1): 15.7 µM (inactive) | GI50 (HOP-62): 17.9 µM (inactive) | GI50 (OVCAR-3): 1.82 µM (inactive) | GI50 (K562): 3.17 µM (inactive) | GI50 (U-251): 4.02 µM (inactive) | GI50 (TK-10): 9.64 µM (inactive) | GI50 (NCI-H460): 2.92 µM (inactive) | GI50 (SW-620): 2.31 µM (inactive) | GI50 (RXF 393): 13.2 µM (inactive) | GI50 (MDA-MB-231): 7.35 µM (inactive) | GI50 (Hs-578T): 20.1 µM (inactive) | GI50 (A549): 3.56 µM (inactive) | GI50 (KM12): 12 µM (inactive) | GI50 (NCI-H23): 2.21 µM (inactive) | GI50 (IGROV-1): 3.74 µM (inactive) | GI50 (MCF7): 1.42 µM (inactive) | GI50 (HL-60): 2.52 µM (inactive) | GI50 (OVCAR-5): 3.9 µM (inactive) | GI50 (NCI/ADR-RES): 2.94 µM (inactive) | GI50 (HCT-15): 1.64 µM | GI50 (NCI-H522): 2.9 µM (inactive) | GI50 (HCT-116): 2.02 µM (inactive) | GI50 (SK-MEL-28): 17.1 µM (inactive) | GI50 (SNB-19): 18.4 µM (inactive) | GI50 (NCI-H226): 16.9 µM (inactive) | GI50 (MDA-N): 1.84 µM (inactive) | GI50 (PC-3): 3.07 µM (inactive) | GI50 (CCRF-CEM): 3.17 µM (inactive) | GI50 (SK-MEL-2): 6.97 µM (inactive) | GI50 (SK-MEL-5): 1.72 µM (inactive) | GI50 (A498): 14.4 µM (inactive) | GI50 (DU-145): 3.42 µM (inactive) | GI50 (BT-549): 11.9 µM (inactive) | GI50 (SF-539): 10.6 µM (inactive) | GI50 (HT-29): 4.48 µM (inactive) | GI50 (OVCAR-4): 3.76 µM (inactive) | GI50 (M14): 1.56 µM (inactive) | GI50 (LOX IMVI): 1.92 µM (inactive) | GI50 (RPMI-8226): 4.44 µM (inactive) | GI50 (SF-268): 17.3 µM (inactive) | GI50 (UACC-257): 1.62 µM (inactive) | GI50 (MDA-MB-435): 1.82 µM (inactive) | GI50 (SK-OV-3): 20.6 µM (inactive) | GI50 (COLO 205): 1.38 µM (inactive) | GI50 (SNB-75): 16.6 µM (inactive) | GI50 (Malme-3M): 1.52 µM (inactive) | GI50 (UO-31): 10.3 µM (inactive) | GI50 (EKVX): 19.6 µM (inactive) | GI50 (T47D): 5.65 µM (inactive) | GI50 (786-0): 8.55 µM (inactive) | GI50 (OVCAR-8): 3.44 µM (inactive) | GI50 (UACC-62): 1.82 µM (inactive)
